Experimental data published in US8647610B2, “Use of melanin biosynthesis inhibitors from korean ginseng and the cosmetic composition containing thereof for skin whitening” (Amorepacific Corporation, priority 2007, dated 2014).

How the values were obtained:
[1] = system: Mouse melanocytes (Mel-Ab cells); experiment: Melanin production inhibitory effect using mouse melanocytes (Dooley method); type: cell-based; conditions: 10 ppm of test substance for 3 days, absorbance at 400 nm
human skin = experiment: Whitening effect on human skin after UVB-induced blackness; type: in vivo; conditions: 10 weeks, colorimeter
From the text: An opaque tape having a perforated hole of a 1.5 cm-diameter was attached to the upper arm of each of 12 healthy men. Then, UV rays (UVB) were irradiated to each of the subjects at a dose 1.5-2 times higher than the minimal erythema dose, thus inducing skin's blackness.
After the UV irradiation, a 1 wt % solution of each of the test samples (1,3-butyleneglycol: ethanol=7:3, as a vehicle) was applied to the skin of each subject. As negative and positive control groups, a 3 wt % solution of each of […] was applied to the skin of each subject. […] The skin color was measured with a colorimeter (Minolta, Japan) at a 1-week interval. Then, the difference (ΔL*) in skin color between the time point of application and the time point of completion of application of each sample was calculated according to the following equation 2, and the calculation results are shown in Table 2 below. Meanwhile, the whitening effect of each sample was evaluated by comparing ΔL* between the site applied with each sample and the control site.

[2] = 1 wt % solution in 1,3-butyleneglycol:ethanol=7:3 applied to UVB-irradiated upper arm of 12 healthy men

Compound	Melanin production inhibitory rate (%) [1] [%]	Lightless (ΔL*) of skin color (human skin; [2])	inhibition at 10 ppm ([1]; Mus musculus, 72 h, read-out: Melanin production inhibitory rate (%)) [%]	Lightless (ΔL*) of skin color (human skin; 3 wt % solution (positive control) applied to UVB-irradiated upper arm of 12 healthy men)
20-O-β-D-glucopyranosyl-20(S)-protopanaxatriol [Example 1]	35.1	1.60 ± 0.13	–	–
20-O-β-D-glucopyranosyl-20(S)-protopanaxatriol [Example 2]	33.6	1.67 ± 0.17	–	–
20-O-β-D-glucopyranosyl-20(S)-protopanaxatriol [Example 3]	34.2	1.71 ± 0.13	–	–
20-O-β-D-glucopyranosyl-20(S)-protopanaxatriol [Example 4]	34.9	1.64 ± 0.21	–	–
20-O-β-D-glucopyranosyl-20(S)-protopanaxatriol [ginsenoside F1]	–	higher than 1.6	–	–
O=c1cc(CO)occ1O [Kojic acid, reference compound]	–	–	30.5	1.56 ± 0.11
